Laboratory results: patent US10072011B2, “Substituted bridged urea analogs as sirtuin modulators” (GlaxoSmithKline Intellectual Property (No.2) Limited, priority 2014, dated 2018)
Where two headings read alike, the source gives them in different places.

Biological target: T1, SIRT1 (Homo sapiens, UniProt Q96EB6)
T1 sequence (Q96EB6 1-747): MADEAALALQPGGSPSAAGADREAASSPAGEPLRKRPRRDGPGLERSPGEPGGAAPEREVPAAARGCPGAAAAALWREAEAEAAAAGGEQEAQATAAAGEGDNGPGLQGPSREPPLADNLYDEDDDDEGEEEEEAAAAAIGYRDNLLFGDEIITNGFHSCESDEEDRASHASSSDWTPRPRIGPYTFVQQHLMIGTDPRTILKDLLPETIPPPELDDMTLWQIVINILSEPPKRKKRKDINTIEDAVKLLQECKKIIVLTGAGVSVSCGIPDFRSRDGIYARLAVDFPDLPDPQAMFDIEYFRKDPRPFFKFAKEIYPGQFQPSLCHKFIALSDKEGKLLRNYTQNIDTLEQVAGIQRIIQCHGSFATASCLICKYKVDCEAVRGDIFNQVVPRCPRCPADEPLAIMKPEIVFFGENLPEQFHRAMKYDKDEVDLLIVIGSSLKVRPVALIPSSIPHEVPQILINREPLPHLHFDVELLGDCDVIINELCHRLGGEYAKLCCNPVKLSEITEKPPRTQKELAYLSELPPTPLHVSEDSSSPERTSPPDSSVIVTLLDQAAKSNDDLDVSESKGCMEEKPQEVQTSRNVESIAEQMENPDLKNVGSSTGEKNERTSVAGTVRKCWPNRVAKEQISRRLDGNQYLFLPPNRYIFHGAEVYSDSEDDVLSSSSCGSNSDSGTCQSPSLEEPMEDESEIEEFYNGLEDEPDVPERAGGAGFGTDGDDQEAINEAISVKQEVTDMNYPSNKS
Assay: Trp mass spectrometry assay of SIRT1 activation (Ac-R-H-K-K(Ac)-W-NH2 peptide)
Format: biochemical
Conditions: for Emax: 25 min, read-out: TRP MAX RESP (percent maximum fold activation)
Summary of the method: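 N-terminal His-tagged human SIRT1, expressed in BL21(DE3) and purified, was incubated 25 min with an acetylated Trp peptide and NAD plus test compound at varying concentrations, then quenched with formic acid. OAADPR or deacetylated peptide was quantified by mass spectrometry versus compound-free control; EC1.5 is the concentration giving 50% activity increase, with percent maximum activation.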

[1] = Trp peptide 0.5 μM, 120 μM βNAD+, 10 nM SIRT1, 25 min at 25° C., relative to control (100%)
[2] = Trp peptide 0.5 μM, 120 μM βNAD+, 10 nM SIRT1, 25 min at 25° C.

Compound | Emax [1] [%] | TRP Activity (EC1.5, concentration of test compound that results in 150% activation of SIRT1) [2] | Emax [%]
O=C(NCC(F)(F)F)c1ccc2c(n1)N(C(=O)Nc1cc(OC[C@H](O)CO)ccn1)[C@H]1CCN2C1 [Example 89, (4S)—N5-(4-((R)-2,3-dihydroxypropoxy)pyridin-2-yl)-N7-(2,2,2-trifluoroethyl)-3,4-dihydro-1,4-methanopyrido[2,3-b][1,4]diazepine-5,7(2H)-dicarboxamide] | > 150 | A (EC1.5<1 μM) | –
CC[C@@H](NC(=O)c1ccc2c(n1)N(C(=O)Nc1cc(OC[C@H](O)CO)ccn1)[C@H]1CCN2C1)C(F)(F)F [Example 90, (4S)—N5-(4-((R)-2,3-dihydroxypropoxy)pyridin-2-yl)-N7-((R)-1,1,1-trifluorobutan-2-yl)-3,4-dihydro-1,4-methanopyrido[2,3-b][1,4]diazepine-5,7(2H)-dicarboxamide] | > 150 | A (EC1.5<1 μM) | –
O=C(NC[C@H](O)C(F)(F)F)c1ccc2c(n1)N(C(=O)Nc1cc(OC[C@H](O)CO)ccn1)[C@H]1CCN2C1 [Example 91, (4S)—N5-(4-((R)-2,3-dihydroxypropoxy)pyridin-2-yl)-N7-((S)-3,3,3-trifluoro-2-hydroxypropyl)-3,4-dihydro-1,4-methanopyrido[2,3-b][1,4]diazepine-5,7(2H)-dicarboxamide] | > 150 | A (EC1.5<1 μM) | –
O=C(NCC(F)(F)F)c1ccc2c(n1)N(C(=O)Nc1ncc3cc[nH]c3n1)[C@H]1CCN2C1 [Example 93, (4S)—N5-(7H-pyrrolo[2,3-d]pyrimidin-2-yl)-N7-(2,2,2-trifluoroethyl)-3,4-dihydro-1,4-methanopyrido[2,3-b][1,4]diazepine-5,7(2H)-dicarboxamide] | – | A (EC1.5<1 μM) | > 150
NCC(F)(F)CNC(=O)c1ccc2c(n1)N(C(=O)Nc1ccccn1)[C@H]1CCN2C1 [Example 94, (4S)—N7-(3-amino-2,2-difluoropropyl)-N5-(pyridin-2-yl)-3,4-dihydro-1,4-methanopyrido[2,3-b][1,4]diazepine-5,7(2H)-dicarboxamide] | > 150 | B (EC1.5 1-25 μM) | –
O=C(NCC(F)(F)F)c1ccc2c(n1)N(C(=O)Nc1cnc(OC[C@H](O)CO)cn1)[C@H]1CCN2C1 [Example 95, (4S)—N5-(5-((R)-2,3-dihydroxypropoxy)pyrazin-2-yl)-N7-(2,2,2-trifluoroethyl)-3,4-dihydro-1,4-methanopyrido[2,3-b][1,4]diazepine-5,7(2H)-dicarboxamide] | > 150 | A (EC1.5<1 μM) | –
O=C(NCC1CC1)c1ccc2c(n1)N(C(=O)Nc1cccnn1)[C@H]1CCN2C1 [Example 96, (4S)—N7-(cyclopropylmethyl)-N5-(pyridazin-3-yl)-3,4-dihydro-1,4-methanopyrido[2,3-b][1,4]diazepine-5,7(2H)-dicarboxamide] | > 150 | A (EC1.5<1 μM) | –
O=C(NCC1CC1)c1ccc2c(n1)N(C(=O)Nc1ncccn1)[C@H]1CCN2C1 [Example 97, (4S)—N7-(cyclopropylmethyl)-N5-(pyrimidin-2-yl)-3,4-dihydro-1,4-methanopyrido[2,3-b][1,4]diazepine-5,7(2H)-dicarboxamide] | > 150 | A (EC1.5<1 μM) | –
C[C@@H](NC(=O)c1ccc2c(n1)N(C(=O)Nc1cccn(C)c1=O)[C@H]1CCN2C1)C(F)(F)F [Example 98, (4S)—N5-(1-methyl-2-oxo-1,2-dihydropyridin-3-yl)-N7-((R)-1,1,1-trifluoropropan-2-yl)-3,4-dihydro-1,4-methanopyrido[2,3-b][1,4]diazepine-5,7(2H)-dicarboxamide] | > 150 | A (EC1.5<1 μM) | –
C#CCNC(=O)c1ccc2c(n1)N(C(=O)Nc1ccccn1)[C@H]1CCN2C1 [Example 99, (4S)—N7-(prop-2-yn-1-yl)-N5-(pyridin-2-yl)-3,4-dihydro-1,4-methanopyrido[2,3-b][1,4]diazepine-5,7(2H)-dicarboxamide] | > 150 | A (EC1.5<1 μM) | –
CC(C)(C#N)NC(=O)c1ccc2c(n1)N(C(=O)Nc1ccccn1)[C@H]1CCN2C1 [Example 104, (4S)—N7-(2-cyanopropan-2-yl)-N5-(pyridin-2-yl)-3,4-dihydro-1,4-methanopyrido[2,3-b][1,4]diazepine-5,7(2H)-dicarboxamide] | > 150 | B (EC1.5 1-25 μM) | –
C#C[C@@H](C)NC(=O)c1ccc2c(n1)N(C(=O)Nc1ccccn1)[C@H]1CCN2C1 [Example 105, (4S)—N7-((R)-but-3-yn-2-yl)-N5-(pyridin-2-yl)-3,4-dihydro-1,4-methanopyrido[2,3-b][1,4]diazepine-5,7(2H)-dicarboxamide] | > 150 | A (EC1.5<1 μM) | –
O=C(NCc1ccccc1)c1ccc2c(n1)N(C(=O)Nc1ccccn1)[C@H]1CCN2C1 [Example 106, (4S)—N7-benzyl-N5-(pyridin-2-yl)-3,4-dihydro-1,4-methanopyrido[2,3-b][1,4]diazepine-5,7(2H)-dicarboxamide] | > 150 | A (EC1.5<1 μM) | –
N#CCNC(=O)c1ccc2c(n1)N(C(=O)Nc1ccccn1)[C@H]1CCN2C1 [Example 107, (4S)—N7-(cyanomethyl)-N5-(pyridin-2-yl)-3,4-dihydro-1,4-methanopyrido[2,3-b][1,4]diazepine-5,7(2H)-dicarboxamide] | – | A (EC1.5<1 μM) | > 150
C[Si](C)(C)CNC(=O)c1ccc2c(n1)N(C(=O)Nc1ccccn1)[C@H]1CCN2C1 [Example 108, (4S)—N5-(pyridin-2-yl)-N7-((trimethylsilyl)methyl)-3,4-dihydro-1,4-methanopyrido[2,3-b][1,4]diazepine-5,7(2H)-dicarboxamide] | > 150 | A (EC1.5<1 μM) | –
CC#CCNC(=O)c1ccc2c(n1)N(C(=O)Nc1ccccn1)[C@H]1CCN2C1 [Example 109, (4S)—N7-(but-2-yn-1-yl)-N5-(pyridin-2-yl)-3,4-dihydro-1,4-methanopyrido[2,3-b][1,4]diazepine-5,7(2H)-dicarboxamide] | > 150 | A (EC1.5<1 μM) | –
Cc1ccnc(NC(=O)N2c3nc(C(=O)NCC4CC4)ccc3N3CC[C@H]2C3)c1 [Example 110, (4S)—N7-(cyclopropylmethyl)-N5-(4-methylpyridin-2-yl)-3,4-dihydro-1,4-methanopyrido[2,3-b][1,4]diazepine-5,7(2H)-dicarboxamide] | > 150 | A (EC1.5<1 μM) | –
Cc1ccc(NC(=O)N2c3nc(C(=O)NCC4CC4)ccc3N3CC[C@H]2C3)nc1 [Example 111, (4S)—N7-(cyclopropylmethyl)-N5-(5-methylpyridin-2-yl)-3,4-dihydro-1,4-methanopyrido[2,3-b][1,4]diazepine-5,7(2H)-dicarboxamide] | > 150 | A (EC1.5<1 μM) | –
